These results are taken from patent US20230398134A1, “SOLID DISPERSIONS OF CANNABIDIOL” (INDENA S.P.A., priority 2020, published 2023).

The nature of series [1]: Solubility in fasted-state simulated intestinal fluid (FaSSIF, pH 6.5). Format: physicochemical. As to conditions: FaSSIF pH 6.5, excess solid, 2 hours stirring at room temperature, filtered 0.45 μm. As to the method:
(§1) The solubility of the solid powder dispersion of CBD 2, prepared as described in Example 1, was evaluated in simulated biological fluids. […] For the purposes of the present description, the term “mechanical mixture” means a combination of one or more solids amalgamated by mixing techniques not involving the use of any solvent.
(§2) The solubility studies in different biologically relevant media of the solid dispersion prepared according to Example 1 were conducted to evaluate its behaviour in the intestine under fed and fasted conditions. The solubility studies were conducted in FaSSIF (pH 6.5) and FeSSIF (pH 5).
(§3) 10-20 mL of FaSSIF and FeSSIF were placed in 40 mL glass vials. An amount of solid dispersion prepared according to Example 1, and an amount of mechanical mixture prepared according to Example 2, in excess of the expected saturated solubility, was added to the vials; the resulting mixtures were maintained under stirring for 2 hours at room temperature. The mixtures were filtered through 0.45 μm PTFE membrane filters. The filtered solutions were analysed with HPLC instrumentation.
10-20 mL of FaSSIF was placed in 40 mL glass vials. […] The mixtures were filtered through 0.45 μm PTFE membrane filters. The filtered solutions were analysed with HPLC instrumentation.

Series [2] is described as follows: Solubility in fed-state simulated intestinal fluid (FeSSIF, pH 5). Format: physicochemical. As to conditions: FeSSIF pH 5, excess solid, 2 hours stirring at room temperature, filtered 0.45 μm, HPLC (Table 2). As to the method:
as §1, §2, §3

For the compound `C=C(C)[C@@H]1CCC(C)=C[C@H]1c1c(O)cc(CCCCC)cc1O` [Cannabidiol 2, 2-[(1R,6R)-3-methyl-6-(prop-1-en-2-yl)-cyclohex-2-enyl]-5-pentylbenzen-1,3-diol], the “Cannabidiol 2 (mg/mL) concentration” value in series [1] (HPLC (Table 2)) is 0.067 mg/mL; in series [1] (HPLC (Table 3)), 0.067 mg/mL; in series [2] it was 0.278 mg/mL.
